Laboratory results published in patent publication US9067937B2 (priority 2012, dated 2015).
Where “and” joins values, the source holds several entries; their conditions need not be identical. Equal entries are not always repeated. Structures can show the parent of a compound that is named as a salt. Where two headings read alike, the source gives them in different places.

Key:
22Rv1 cells = assay: Cell-based assay, anti-proliferative activity (Cell Counting Kit-8, 72 hours); design: species or system human; conditions: Homo sapiens
Procedure, shortened: (§1)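 Cells seeded at 2,000–3,000 cells/well and exposed to candidate MELK inhibitors for 72 hours; growth measured with Cell Counting Kit-8. IC50 values calculated from the growth read-out.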

A549 cells = assay: as above; design: species or system human; conditions: Homo sapiens
Procedure, shortened: as §1

DU4475 cells = assay: as above; design: species or system human; conditions: Homo sapiens
Procedure, shortened: as §1

T47D cells = assay: as above; design: species or system human; conditions: Homo sapiens, T47D
Procedure, shortened: as §1

HT1197 cells = assay: Cell-based assay, anti-proliferative activity, MELK-negative control (Cell Counting Kit-8, 72 hours); design: species or system human; conditions: Homo sapiens
Protocol: 100 micro-L of cell suspension was seeded onto 96-well microtiter plate (ViewPlate-96FTC, PerkinElmer). The initial cell concentration of 22Rv1, T47D, A549, DU4475, and HT1197 were 3,000 cells/well, 2,000 cells/well and 2,500 cells/well, respectively. Cellular growth was determined using Cell Counting Kit-8 (DOJINDO) at 72 hours after the exposure of the candidate inhibitors. […] Accurate IC50 values were calculated as described previously.

MDA-MB-231 xenografts = assay: Xenograft model antitumor assay; design: species or system mice; conditions: mouse, in vivo; dihydrochloride
DU145 xenografts = assay: Xenograft model antitumor assay; design: species or system mice; conditions: mouse, in vivo
MIAPaCa-2 xenografts = assay: Xenograft model antitumor assay; design: species or system mice; conditions: mouse, in vivo
PC-14 xenografts = assay: Xenograft model antitumor assay (MELK-negative); format: in vivo, mice; conditions: PC-14 (MELK hardly detectable), 10 mg/kg oral once a day, 14 days

CC(=O)c1cnc2ccc(-c3cc(Cl)c(O)c(Cl)c3)nc2c1N[C@H]1CC[C@H](CN(C)C)CC1 [Example 6, 1-{6-(3,5-Dichloro-4-hydroxyphenyl)-4-({trans-4-[(dimethylamino)methyl]cyclohexyl}amino)-1,5-naphthyridin-3-yl}ethanone dihydrochloride] gave an IC50 (22Rv1 cells; 22Rv1, 72 h, read-out: IC50 (μM) (22Rvl)) of 0.0052 µM, an IC50 (22Rv1 cells; 22Rv1, read-out: IC50, in vitro anti-proliferative assay) of 0.006 µM and an IC50 (A549 cells; A549, 72 h, read-out: IC50 (μM) (A549)) of 0.0089 µM. The IC50 (A549 cells; A549, read-out: IC50, in vitro anti-proliferative assay) was 0.0067 µM, the IC50 (DU4475 cells; DU-4475, 72 h, read-out: IC50 (μM) (DU4475)) was 0.0033 µM and the IC50 (DU4475 cells; DU-4475, read-out: IC50, in vitro anti-proliferative assay) was 0.0023 µM. For the same molecule, the IC50 (T47D cells; 72 h, read-out: IC50 (μM) (T47D)) was 0.0053 µM, the IC50 (T47D cells; read-out: IC50, in vitro anti-proliferative assay) was 0.0043 µM and the IC50 (HT1197 cells; HT1197, 72 h, read-out: IC50 (μM) (HTll97)) was 0.12 µM. The IC50 (HT1197 cells; HT1197, read-out: IC50, in vitro anti-proliferative assay) was 0.097 µM, the “Tumor growth inhibition (TGI)” value (MDA-MB-231 xenografts) was 73% and 72% and the “Tumor growth inhibition (TGI)” value (DU145 xenografts) was 106%. For the same molecule, the “Tumor growth inhibition (TGI)” value (MIAPaCa-2 xenografts) was 87% and the “Tumor growth suppressive effect” value (PC-14 xenografts) was “no tumor growth suppressive effect”.
